Measured values reported in US20220249596A1, “PIC1 PEPTIDE COMPOSITIONS AND METHODS OF USE THEREOF FOR TREATMENT OF HYPOXIC ISCHEMIC ENCEPHALOPATHY” (REALTA HOLDINGS, LLC, priority 2019, published 2022).
No end group written: not given here.

How the values were obtained:
Assay type in all cases: in vivo, rat
[1] = test system: apoptosis in cortex and hippocampus; experiment: TUNEL/DAPI/C1q staining of brain sections 48 hours after injury
Experimental: To assess the effect of PIC1 on cell death at 48 hours after the initial injury, TUNEL staining, alone or in combination with C1q staining, was utilized to measure DNA strand breaks that are generated during apoptosis.
(§1) TUNEL/C1q staining was performed as follows. Five (5) μm paraffin-embedded coronal brain sections on slides were incubated (1 hour; 60° C.), deparaffinized with xylene, and rehydrated with ethanol (100%, 95%, 70%; RT). Endogenous peroxidase activity was blocked (0.3% H2O2/MeOH; 10 minutes; RT), and heat induced antigen retrieval was performed (when indicated) using 10 mM sodium citrate, pH 6.0. 10% normal serum (from the same species as the host of the secondary antibody) was used to block and to dilute antibodies. Samples were washed twice for 10 min each, in PBST between each step.
For C1q/TUNEL co-staining, tissue was incubated with the TUNEL solution according to manufacturer's instructions (In Situ Cell Death Detection Kit, Roche Molecular Diagnostics, Pleasanton, Calif.), followed by blocking with NGS for one hour at room temperature. C1q was probed using 1:300 mouse anti-C1q (Abcam) in NGS for 30 min at 37° C., followed by incubation in 1:500 goat anti-mouse (Abcam) AF 568 for 30 min at 37° C. All samples were mounted with aqueous mounting media comprising 4′,6-diamidino-2-phenylindole (Vectashield antifade mounting medium with DAPI, Vector Laboratories, Burlingame, Calif.) and coverslipped.
(§2) Fluorescent images of the cortex were taken at 20× magnification using a digital camera (DP70, Olympus Center, Valley Forge, Pa.), mounted on a BX50 Olympus microscope. Adobe Photoshop CS5 was used to merge immunofluorescence images, and Image J (National Institutes of Health) was used for analysis.

[2] = test system: C3a; experiment: Systemic C3a level in plasma, ELISA; settings: 8, 12 and 24 hours after initial insult, P<0.05
Experimental: Systemic C1q and C5a levels were measured as follows. 100 μl of 1:5 plasma in 1×PBS was added to the wells of a plate described above and incubated overnight at 4° C. The plates were washed 3 times with PBST and blocked with NDS or NGS for one hour. Samples were probed with either 1:50 goat anti-human C1q (Complement Technology) in NDS or 1:200 mouse anti-human C5a (Human Complement Component C5a DuoSet ELISA, R&D Systems, Inc., Minneapolis, Minn.) in NGS for one hour at RT. The wells were washed and 1:500 donkey anti-goat 488 (Life Technologies) in NDS or 1:500 goat anti-mouse AF 568 (Life Technologies) in NGS was added, and incubated for one hour at RT. The wells were washed and the plate read using a Synergy HT (BioTek). Systemic C3a levels in plasma (1:20 dilution) were measured using a standard ELISA, according to the manufacturer's instructions (Rat C3a ELISA Kit, TSZ ELISA, Waltham, Mass.).

[3] = test system: neurons, microglia and astrocytes of ipsilateral cortex and hippocampus; experiment: Immunofluorescence of neurons (NeuN), microglia (Iba1), astrocytes (GFAP) after HIE; settings: P<0.05
Experimental: as §1
(§3) After blocking for one hour at room temperature, tissues were incubated with 1:300 goat anti-Iba1 (Abcam), 1:250 goat anti-GFAP (Abcam), 1:500 chicken anti-NeuN (Millipore, Billerica, Mass.), or 1:100 mouse anti-NeuN (Millipore) in host appropriate blocking serum overnight at 4° C. Primary antibodies were probed with 1:500 donkey anti-goat (Abcam), goat anti-chicken (Abcam), or goat anti-mouse (Abcam) AF 488 or 568 in appropriate blocking serum for one hour at room temperature. Tissues were blocked a second time with NGS for one hour at room temperature. Samples were then probed with 1:300 mouse anti-C1q (Abcam), 1:300 rabbit anti-C9, 1:50 rabbit anti-MPO (Abcam), 1:200 rabbit anti-TMEM (Novus Bio, Centennial, Colo.), 1:100 rabbit anti-C3aR (Bioss), 1:100 Mouse anti-C5aR (Hycult), or 1:200 chicken anti-C3/C3a (Abcam) in NGS overnight at 4° C. and then with 1:500 goat anti-mouse, rabbit, or chicken (Abcam) AF 488 or 568 in NGS for one hour at room temperature.
as §2

[4] = test system: C9; experiment: Immunofluorescence quantification of C9 in brain; settings: ipsilateral cortex and hippocampus, 48 hours, versus NT, P<0.05
Experimental: as §1
After blocking for one hour at room temperature, tissues were incubated with 1:300 goat anti-Iba1 (Abcam), 1:250 goat anti-GFAP (Abcam), 1:500 chicken anti-NeuN (Millipore, Billerica, Mass.), or 1:100 mouse anti-NeuN (Millipore) in host appropriate blocking serum overnight at 4° C. Primary antibodies were probed with 1:500 donkey anti-goat (Abcam), goat anti-chicken (Abcam), or goat anti-mouse (Abcam) AF 488 or 568 in appropriate blocking serum for one hour at room temperature. Tissues were blocked a second time with NGS for one hour at room temperature. […]

[5] = test system: TMEM119 (microglia); experiment: TMEM119 and Iba1/TMEM119 staining of cortex; settings: 48 hours after injury
Experimental: as §3
Accordingly, a more specific microglial marker was used to differentiate microglia from infiltrated peripheral macrophages. TMEM119 is a reliable microglial marker that discriminates resident microglia from blood-derived macrophages in the brain [21].

[6] = Beam balance test (tapered/ledged beam); settings: six weeks after surgery
Experimental: No other preparation was needed. The thawed tubes were kept on ice until dosing.
Six weeks after surgery, the sensory motor functions of forelimbs and hindlimbs were tested using tapered/ledged beam (Zhao et al., Behav. Brain Res. 156 (2005), 85-94). The shape of the beam was square. The rats were pre-trained for 3 days to traverse the beam. The beam-walking apparatus consists of a horizontal 160 cm tapered (square) beam with underhanging ledges on each side to permit foot faults without falling. The end of the beam was connected to a black box (20.5 cm×25 cm×25 cm) with a platform at the starting point. A bright light was placed above the start point to motivate the rats to traverse the beam. The rats' performance was videotaped and were analyzed by calculating the slip ratio of the impaired (contralateral to lesion) forelimb and hindlimb (number of slips/number of total steps). Steps onto the ledge were scored as a full slip and a half slip was given if the limb touched the side of the beam. Also, the walking/running time on the beam were measured. The mean of three trials were used for statistical analyses. Analysis was carried out by an observer blind to the experimental groups.

IALILEPICCQERAA-dPEG24 (cysteine pairing not given here) [PIC1]
TUNEL positive cells (DNA fragmentation), cortex and hippocampus ([1]; 48 hours, versus NT (P=0.02) and HT (P=0.04)): significantly fewer
cell count ([1]; PIC1- versus HT-treated animals): no significant difference
nucleus size ([1]; versus NT (P=0.02) and HT (P=0.04)): significantly improved
nuclear density by DAPI staining ([1]; versus NT animals, P=0.01): markedly improved
C1q/TUNEL co-localization ([1]; versus NT animals, ipsilateral cortex): qualitative reduction
cell counts (stained nuclei) ([1]; versus NT, P=0.03): significantly improved
C3a levels in plasma, NT animals relative to PIC1-treated animals [2]: significantly higher
neuronal density ([3]; 48 hours, versus NT and HT): higher neuronal density
astrogliosis ([3]; versus NT): reduced astrogliosis
microglial numbers and size ([3]; versus NT): reduced microglial numbers and size
C9 expression [4]: decreased expression
combined Iba1/TMEM119 staining in the cortex ([5]; versus NT and HT animals): almost two-fold decrease
TMEM119 expression in the cortex ([5]; versus NT brains): almost a three-fold decrease
beam balance: hind paw slips ([6]; between study groups): No differences
beam balance: front paw slips ([6]; pooled genders and males, versus H/I+normo, p<0.05): fewer front paw slips
